The source of these data is ChEMBL document CHEMBL1201862, “PubChem BioAssay data set” (2004).

Among the test systems are CAKI-1; COLO 205; HCT-15; Hs-578T; K562; LOX IMVI; MDA-N; Malme-3M; NCI-H460; OVCAR-8; RXF 393; SK-MEL-28; SK-MEL-2; SN12C; TK-10; UACC-257; UO-31; NCI-H226.
What all share (assay): DTP human tumour cell line panel, 48 h

The structures appear in SMILES notation.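 A five-concentration, 48-hour dose response in 96-well plates underlies each endpoint, interpolated linearly between surrounding concentrations. The concentration for 50% growth inhibition is given as GI50.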 Calls of active or inactive are those of the source. Rule as the data show it: active = GI50 up to about 1.1 µM and inactive = higher.

In the case of `CC(=O)O[C@H]1C(=O)[C@@]2(C)[C@H]([C@H](OC(=O)c3ccccc3)[C@]3(O)C[C@H](OC(=O)[C@H](O)[C@@H](NC(=O)c4ccccc4)c4ccc5ccccc5c4)C(C)=C1C3(C)C)[C@]1(OC(C)=O)CO[C@@H]1C[C@@H]2O`, the GI50 was 1.59 µM (inactive) in the assay on CAKI-1; 0.0787 µM (active) with COLO 205; 1.54 µM in the assay with HCT-15; 0.0191 µM (active) in the assay with Hs-578T; 0.029 µM (active) with K562; 0.0887 µM (active) in the assay on LOX IMVI. Besides, the GI50 with MDA-N is 0.0101 µM (active); in the assay with Malme-3M, 0.179 µM (active); with NCI-H460, 0.0706 µM (active); in the assay on OVCAR-8, 0.091 µM (active); with RXF 393 it was 0.219 µM (active); in the assay on SK-MEL-28 it was 0.132 µM (active). Moreover, the GI50 in the assay with SK-MEL-2 is 0.0362 µM (active); with SN12C, 0.0681 µM (active); in the assay on TK-10, 0.506 µM (active); in the assay with UACC-257 it was 0.0826 µM (active); in the assay on UO-31, 2.39 µM (inactive).
For the molecule `COc1c2c(c(OC)c3c1c(=O)c1ccccc1n3C)OCO2`, the GI50 with CAKI-1 was 37.4 µM (inactive); in the assay with COLO 205, 7.66 µM (inactive); with HCT-15, 26.1 µM; in the assay with Hs-578T it was 4.79 µM (inactive); in the assay on K562 it was 0.703 µM (active); in the assay with LOX IMVI, 5.48 µM (inactive). The GI50 in the assay with MDA-N is 2.08 µM (inactive); in the assay with NCI-H226 it was > 50.4 µM (inactive); with NCI-H460, 8.49 µM (inactive); with OVCAR-8 it was 27.1 µM (inactive); with RXF 393, 6.07 µM (inactive); in the assay on SK-MEL-28, 30.5 µM (inactive). Also, the GI50 in the assay on SK-MEL-2 is > 19.9 µM (inactive); in the assay on SN12C, 33.5 µM (inactive); in the assay with TK-10, > 100 µM (inactive); in the assay with UACC-257, > 100 µM (inactive); with UO-31 it was 39.4 µM (inactive).
On to `CCCCc1nc(C)oc1C(C)C`, for which the GI50 in the assay on CAKI-1 is > 100 µM (inactive); with COLO 205, > 100 µM (inactive); with HCT-15, more than 100 µM; with Hs-578T, > 100 µM (inactive); in the assay with K562, > 100 µM (inactive); with LOX IMVI, > 100 µM (inactive). Further, the GI50 in the assay with MDA-N was > 100 µM (inactive); in the assay on Malme-3M, > 100 µM (inactive); in the assay on NCI-H226 it was 40.7 µM (inactive); in the assay with NCI-H460, > 100 µM (inactive); in the assay with OVCAR-8 it was > 100 µM (inactive); with RXF 393, > 100 µM (inactive). The GI50 in the assay with SK-MEL-28, with SN12C, in the assay with TK-10, with UACC-257 and with UO-31 was > 100 µM (inactive) in each case.
Consider `CC(C)C1=C(Cc2ccccc2)C(=O)O/C1=C\c1ccc(O)c(Cl)c1`, for which the GI50 is 18.6 µM (inactive) in the assay with CAKI-1; 20.4 µM (inactive) with COLO 205; 16 µM with HCT-15; 13.6 µM (inactive) with Hs-578T; 16 µM (inactive) with K562; 18.4 µM (inactive) with LOX IMVI. Further, the GI50 in the assay with MDA-N is 16.5 µM (inactive); in the assay on Malme-3M, 15.8 µM (inactive); in the assay on NCI-H226, 16.6 µM (inactive); in the assay with NCI-H460, 17.4 µM (inactive); in the assay on OVCAR-8, 18.3 µM (inactive); with RXF 393, 17.5 µM (inactive). Further, the GI50 in the assay on SK-MEL-28 was 16.9 µM (inactive); in the assay on SN12C, 16.9 µM (inactive); in the assay on TK-10 it was 17.7 µM (inactive); in the assay with UACC-257 it was 18.8 µM (inactive); in the assay with UO-31, 14.4 µM (inactive).
As for `O=C1CCC2(O)C3Cc4ccc(Oc5nnnn5-c5ccccc5)c5c4C2(CCN3CC2CC2)C1O5` (stereo not drawn), the GI50 with CAKI-1 was > 100 µM (inactive); in the assay on COLO 205, 17.5 µM (inactive); in the assay on HCT-15 it was 35.5 µM; in the assay on Hs-578T, 28.9 µM (inactive); in the assay on K562, 22.2 µM (inactive); in the assay with LOX IMVI it was 27 µM (inactive). Moreover, the GI50 in the assay on MDA-N was 22 µM (inactive); in the assay with Malme-3M, 17.8 µM (inactive); with NCI-H460 it was 56.5 µM (inactive); with OVCAR-8, 63.4 µM (inactive); with RXF 393, 39.1 µM (inactive); with SK-MEL-28, 14.9 µM (inactive). Besides, the GI50 with SK-MEL-2 is 22.1 µM (inactive); in the assay with SN12C, > 100 µM (inactive); in the assay with TK-10, 62.5 µM (inactive); in the assay on UACC-257, 28.2 µM (inactive); in the assay on UO-31, 24.2 µM (inactive).
Take `O=C1/C(=C/c2ccccc2)CCc2ccccc21`: the GI50 in the assay with CAKI-1 was 17.7 µM (inactive); in the assay with COLO 205, 19.6 µM (inactive); with HCT-15, 25.6 µM; with Hs-578T, 19.8 µM (inactive); with K562 it was 6.97 µM (inactive); in the assay with LOX IMVI, 16.8 µM (inactive). The GI50 in the assay on MDA-N is 16.2 µM (inactive); in the assay on Malme-3M it was 16.6 µM (inactive); with NCI-H226, 18.3 µM (inactive); with NCI-H460 it was 26.1 µM (inactive); in the assay with OVCAR-8, 25.6 µM (inactive); with RXF 393, 15.2 µM (inactive). Moreover, the GI50 is 19 µM (inactive) with SK-MEL-28; 21.9 µM (inactive) with SN12C; 15.2 µM (inactive) with TK-10; 16.1 µM (inactive) in the assay with UACC-257; 14.6 µM (inactive) in the assay on UO-31.
Turning to `Cc1ccc(Nc2nc(=O)[nH]c(=O)[nH]2)cc1N=[N+]=[N-]`, the GI50 was > 100 µM (inactive) in the assay with CAKI-1; > 100 µM (inactive) in the assay with COLO 205; more than 100 µM in the assay with HCT-15; > 100 µM (inactive) with Hs-578T; > 100 µM (inactive) in the assay with K562; > 100 µM (inactive) with LOX IMVI. Besides, the GI50 in the assay with MDA-N, in the assay with Malme-3M, in the assay on NCI-H226, in the assay on OVCAR-8, with RXF 393 and in the assay on SK-MEL-2 was > 100 µM (inactive) in each case. The GI50 in the assay with SN12C, with TK-10, in the assay with UACC-257 and in the assay on UO-31 was > 100 µM (inactive) throughout.
On to `COc1cc2oc3c(c(=O)c2c(O)c1/C=C/C(C)C)CCC(C)(C)Oc1cc(O)ccc1-3`, for which the GI50 is 16.5 µM (inactive) with CAKI-1; 16.4 µM (inactive) with COLO 205; 10.2 µM in the assay on HCT-15; 10.4 µM (inactive) with Hs-578T; 4.32 µM (inactive) in the assay on K562; 9.14 µM (inactive) in the assay on LOX IMVI. The GI50 is 13 µM (inactive) in the assay with MDA-N; 20 µM (inactive) in the assay with Malme-3M; 8.41 µM (inactive) in the assay on NCI-H460; 15.5 µM (inactive) in the assay on OVCAR-8; 11.5 µM (inactive) in the assay with RXF 393; 14.8 µM (inactive) in the assay with SK-MEL-28. In addition, the GI50 in the assay with SK-MEL-2 was 16.6 µM (inactive); in the assay with SN12C, 13.6 µM (inactive); with TK-10, 13.8 µM (inactive); in the assay on UACC-257 it was 14.3 µM (inactive); with UO-31, 13.1 µM (inactive).
On to `COc1ccc(-c2cc(O)c3nc4ccccc4n3c2)cc1`, for which the GI50 was > 100 µM (inactive) in the assay with CAKI-1; > 100 µM (inactive) in the assay on COLO 205; more than 100 µM with HCT-15; 85.7 µM (inactive) in the assay on Hs-578T; > 100 µM (inactive) with K562; > 100 µM (inactive) in the assay on LOX IMVI. In addition, the GI50 in the assay on MDA-N, with Malme-3M, in the assay on NCI-H226, in the assay with NCI-H460, in the assay with OVCAR-8 and with RXF 393 was > 100 µM (inactive) each time. Further, the GI50 with SK-MEL-28, in the assay with SN12C, in the assay with TK-10, with UACC-257 and in the assay with UO-31 was > 100 µM (inactive) each time.
As for `O=C1Nc2ccccc2/C1=C\c1c(-c2ccccc2)nc2n1CCS2`, the GI50 in the assay on CAKI-1 was 21.3 µM (inactive); in the assay on COLO 205 it was 29 µM (inactive); in the assay with HCT-15 it was 18.6 µM; in the assay on Hs-578T, 23.4 µM (inactive); with K562, 19.5 µM (inactive); in the assay with LOX IMVI, 18.3 µM (inactive). The GI50 in the assay on MDA-N was 13.1 µM (inactive); with Malme-3M it was 26.9 µM (inactive); with NCI-H460, 17.3 µM (inactive); in the assay with OVCAR-8, 31.3 µM (inactive); in the assay on RXF 393, 16.7 µM (inactive); with SK-MEL-28, 31.2 µM (inactive). In addition, the GI50 is 13.3 µM (inactive) in the assay on SK-MEL-2; 22.1 µM (inactive) in the assay with SN12C; 13.9 µM (inactive) with TK-10; 19.5 µM (inactive) with UACC-257; 5.68 µM (inactive) in the assay with UO-31.
Turning to `CC1(C)Oc2ccc3c(=O)cc(-c4ccccc4)oc3c2C1C(=O)O` (stereo not drawn), the GI50 with CAKI-1 is > 100 µM (inactive); in the assay on COLO 205 it was > 100 µM (inactive); in the assay on HCT-15, more than 100 µM; in the assay on Hs-578T, > 100 µM (inactive); in the assay on K562 it was > 100 µM (inactive); in the assay with MDA-N, > 100 µM (inactive). The GI50 in the assay with Malme-3M, in the assay on NCI-H226, with OVCAR-8, in the assay with RXF 393, with SK-MEL-2 and with SN12C was > 100 µM (inactive) in each case. Besides, the GI50 in the assay on TK-10 and in the assay on UACC-257 was > 100 µM (inactive) in each case.
`O=S(=O)(O)CCCC1S(=O)(=O)OCCOS1(=O)=O`: the GI50 with CAKI-1 was > 100 µM (inactive); in the assay on COLO 205, > 100 µM (inactive); with HCT-15, more than 100 µM; with Hs-578T, > 100 µM (inactive); in the assay with LOX IMVI it was > 100 µM (inactive); with MDA-N, > 100 µM (inactive). For the same molecule, the GI50 in the assay with Malme-3M, with NCI-H226, with NCI-H460, with OVCAR-8, with RXF 393 and in the assay with SK-MEL-28 was > 100 µM (inactive) in each case. The GI50 with TK-10, with UACC-257 and in the assay on UO-31 was > 100 µM (inactive) each time.

For orientation: GI50 means the concentration at which growth is held to half of that of the control.
